Source: BindingDB's records for doi:10.1016/j.bmcl.2007.02.049 (Gnf, 2007)

Biological target: Cathepsin S (Homo sapiens, UniProt P25774)
Experiment: Enzyme Inhibition Assay
Details: pH 5.5; 37 °C
Experimental: The recombinant human cathepsin enzyme was preincubated with inhibitor for 20 minutes prior to addition of substrate. The substrate hydrolysis was monitored by the increase in fluorescence at an excitation wavelength of 380nm and an emission wavelength of 450 nm on a Gemini EM fluorometer. The reaction progress curve was fitted to the Morrison equation using PlateKi (BioKin) and the apparent inhibition constant was converted to the inhibition constant (Ki) for competitive inhibitors.

Chain of Cathepsin S (P25774 whole entry): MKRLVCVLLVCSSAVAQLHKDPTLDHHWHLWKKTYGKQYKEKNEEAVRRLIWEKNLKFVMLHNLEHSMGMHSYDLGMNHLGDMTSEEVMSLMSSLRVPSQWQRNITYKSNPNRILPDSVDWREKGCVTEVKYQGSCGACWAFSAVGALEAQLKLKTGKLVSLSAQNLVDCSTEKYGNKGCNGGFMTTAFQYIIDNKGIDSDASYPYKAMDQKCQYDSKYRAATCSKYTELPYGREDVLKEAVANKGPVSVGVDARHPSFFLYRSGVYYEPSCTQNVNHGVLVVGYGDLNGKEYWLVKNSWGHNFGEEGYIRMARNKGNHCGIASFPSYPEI

SMILES: O=C(N[C@@H](CCc1ccccc1)CNc1ccc(OC(F)(F)F)cc1)[C@H](CCC1CCCC1)CC(=O)N1CCOCC1 [(2R)-2-(2-cyclopentylethyl)-4-(morpholin-4-yl)-4-oxo-N-[(2S)-4-phenyl-1-{[4-(trifluoromethoxy)phenyl]amino}butan-2-yl]butanamide]
- Ki: 20 nM
